# Experimental data from patent US5068247A, “2-aminopentanoic acid compounds and their use as immunosuppressants” (priority 1989, dated 1991).
# Legend:
# [1] = tested on: mouse allogenic MLR (BALB/c mouse spleen cells stimulated with C57BL/6 mouse spleen cells); experiment: mouse allogenic mixed lymphocyte reaction (MLR), 3H-thymidine uptake; type: cell-based
# Method: The immunosuppressive activity of the compounds was assayed on the basis of mouse allogenic mixed lymphocyte reaction (hereinafter sometimes abbreviated as MLR). Mouse allogenic MRL was carried out using a mixed culture of BALB/c mouse (H-2^d) spleen cells as the responder cells and mitomycin C-treated C57BL/6 ([…]) mouse spleen cells as the stimulator cells in equal amounts.
# The responder cells were prepared as follows:
# The spleen was resected from 5- to 6-week-old BALB/c mice, and single cell suspension of spleen cells was prepared by using the RPMI1640 culture medium (containing 60 μg/ml of kanamycin sulfate, 2 mM of L-glutamine, 10 mM of N-2-hydroxyethylpiperazine-N'-2-ethanesulphonate (HEPES) and 0.1% sodium hydrogencarbonate) to which heat-inactivated fetal calf serum (hereinafter sometimes abbreviated as FCS) had been added to 5%. After hemolytic treatment, the cell suspension was adjusted to a concentration of 10^7 cells/ml with the RPMI1640 culture medium supplemented with 10^-4 M 2-mercapto-ethanol and 20% FCS, and was used as the responder cell suspension.
# The stimulator cells were prepared as follows: The spleen was resected from 5- to 6-week-old male C57BL/6 mice, and a single cell suspension of spleen cells was prepared by using the RPMI1640 culture medium. After hemolytic treatment, the cells were treated with 40 μg/ml of mitomycin C at 37° C. for 60 minutes. After washing three times, the cell suspension was adjusted to a concentration of 10^7 cells/ml with the RPMI1640 culture medium supplemented with 10^-4 M 2-mercapto-ethanol and 20% FCS, and was used as the stimulator cell suspension.
# The blastogenesis of lymphocytes was assayed using ^3 H-thymidine uptake as an index. That is, after termination of culture, 18.5 KBq/well of ^3 H-thymidine was added thereto and the suspension was cultured for 4 hours. Cells were harvested by a cell-harvester, and the radioactivity incorporated into the cells was determined by a liquid scintillation counter, which was used as an index of blastogenesis of lymphocytes in the mouse allogenic MLR. The suppression of the mouse allogenic MLR was evaluated by calculating the percent suppression by the following formula.
# The test substance dissolved in methanol was diluted with the RPMI1640 culture medium and put to use.
# [2] = tested on: HL60; experiment: cytotoxicity to cultured tumor cell line HL60
# Method: (§1) Cytotoxicity to various human tumor cell lines was examined as follows:
# (§2) Cells of human cell lines, K562, MOLT4, U937 and HL60 were respectively suspended to the concentration of 4×10^5 cells/ml in the RPMI1640 culture medium supplemented with 20% FCS. Fifty μl of each suspension was added to each well of a 96-well microtest plate to which 50 μl of the test solution had been added. After culturing the suspension at 37° C. in an atmosphere of 5% carbon dioxide for 72 hours, the absorbancy at 570 nm was measured in the same way as with the colorimetry using MTT in Experiment Example 1, and the percent suppression was calculated by the following formula, which was used as an index of cytotoxicity.
# [3] = cytotoxicity to cultured tumor cell line HL60; settings: human, hl60 cells, Suppression
# Method: as §1, §2
# [4] = tested on: MOLT4; experiment: cytotoxicity to cultured tumor cell line MOLT4; type: cell-based, human
# Method: as §1, §2
# [5] = cytotoxicity to cultured tumor cell line MOLT4; type: cell-based, human; settings: human, molt4 cells, read-out: Suppression
# Method: as §1, §2
# [6] = tested on: K562; experiment: cytotoxicity to cultured tumor cell line K562
# Method: as §1, §2
# [7] = cytotoxicity to cultured tumor cell line K562; settings: human, k562 cells, Suppression
# Method: as §1, §2
# [8] = tested on: U937; experiment: cytotoxicity to cultured tumor cell line U937; type: cell-based, human
# Method: as §1, §2
# [9] = cytotoxicity to cultured tumor cell line U937; type: cell-based, human; settings: human, u937 cells; 0.1 μg/ml; read-out: Suppression
# Method: as §1, §2
smiles,measurement,setting,value
CCCCCCC(CCCCCC/C=C/C[C@@H](O)[C@H](O)[C@@](N)(CO)C(=O)O)=NO [Example 4],3H-thymidine uptake,"[1]; 0.0001 μg/ml, Table 1A",16905 cpm
same,3H-thymidine uptake,"[1]; 0.001 μg/ml, Table 1A",15970 cpm
same,3H-thymidine uptake,"[1]; 0.01 μg/ml, Table 1A",15399 cpm
same,3H-thymidine uptake,"[1]; 0.1 μg/ml, Table 1A",1637 cpm
same,3H-thymidine uptake,"[1]; 1 μg/ml, Table 1A",1477 cpm
same,inhibition at 0.0001 µg/mL,"[1]; Mus musculus, Lymphocyte, 0.0001 μg/ml, Table 1A, read-out: Suppression",9.1%
same,inhibition at 0.001 µg/mL,"[1]; Mus musculus, Lymphocyte, 0.001 μg/ml, Table 1A, read-out: Suppression",14.7%
same,inhibition at 0.01 µg/mL,"[1]; Mus musculus, Lymphocyte, 0.01 μg/ml, Table 1A, read-out: Suppression",18.1%
same,inhibition at 0.1 µg/mL,"[1]; Mus musculus, Lymphocyte, 0.1 μg/ml, Table 1A, read-out: Suppression",99.9%
same,inhibition at 1 µg/mL,"[1]; Mus musculus, Lymphocyte, 1 μg/ml, Table 1A, read-out: Suppression",100%
same,IC50,"[1]; Mus musculus, Lymphocyte, read-out: 50%-inhibition concentration (IC50) in mouse allogenic MLR",0.025 µg/mL
same,Absorbancy,[2]; 0.1 μg/ml,1.401 ± 0.028
same,Absorbancy,[2]; 1 μg/ml,1.493 ± 0.031
same,Absorbancy,[2]; 10 μg/ml,1.368 ± 0.087
same,cytotoxicity at 72 h,[3]; 0.1 μg/ml,6%
same,cytotoxicity at 72 h,[3]; 1 μg/ml,0%
same,cytotoxicity at 72 h,[3]; 10 μg/ml,8.2%
same,Absorbancy,[4]; 0.1 μg/ml,1.026 ± 0.026
same,Absorbancy,[4]; 1 μg/ml,1.037 ± 0.027
same,Absorbancy,[4]; 10 μg/ml,1.014 ± 0.055
same,cytotoxicity at 72 h,[5]; 0.1 μg/ml,11%
same,cytotoxicity at 72 h,[5]; 1 μg/ml,10.1%
same,cytotoxicity at 72 h,[5]; 10 μg/ml,12.1%
same,Absorbancy,[6]; 0.1 μg/ml,1.145 ± 0.038
same,Absorbancy,[6]; 1 μg/ml,1.129 ± 0.021
same,Absorbancy,[6]; 10 μg/ml,1.148 ± 0.032
same,cytotoxicity at 72 h,[7]; 0.1 μg/ml,0%
same,cytotoxicity at 72 h,[7]; 1 μg/ml,0.6%
same,cytotoxicity at 72 h,[7]; 10 μg/ml,0%
same,Absorbancy,[8]; 0.1 μg/ml,0.765 ± 0.033
same,Absorbancy,[8]; 1 μg/ml,0.744 ± 0.017
same,Absorbancy,[8]; 10 μg/ml,0.750 ± 0.048
same,cytotoxicity at 72 h,[9],0%
